According to the supplement of paper PMC10290057:
Structures can show the parent of a compound that is named as a salt.
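Further: Luminescence-based viability readout, five doses per compound, normalized against on-plate DMSO and empty-well controls, followed by dose-response curve fitting for every drug.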

The compounds below were run on HCT116 (assay: efficacy (fitted maximal change in viability relative to DMSO control); higher = less cytotoxic (negative = loss of viability)). Settings: 48 h.
`O=C(O)C[C@H]1CC[C@H](c2ccc(-c3ccc(Nc4ccc(C(F)(F)F)nc4)cn3)cc2)CC1` [Pradigastat] showed an efficacy of -15.9%. `CCO[C@@H]1OC(=O)C[C@@H]1NC(=O)[C@@H]1CCCN2C(=O)CC[C@H](NC(=O)c3nccc4ccccc34)C(=O)N12` [Pralnacasan] showed an efficacy of -15.4%. `CC[C@H](C)C(=O)O[C@H]1C[C@H](O)\C=C2\C=C/[C@H](C)[C@H](CC[C@@H](O)C[C@@H](O)CC(O)=O)[C@@H]12` [Pravastatin sodium] was tested, and the efficacy was -7.8%. Work on `O=C(C1CCCCC1)N1CC(=O)N2CCc3ccccc3C2C1` (stereo not given) [Praziquantel] yielded an efficacy of -15.9%. `C[C@]12CC(=O)[C@H]3[C@@H](CC\C4=C\C(=O)\C=C/[C@]34C)[C@@H]1CC[C@]2(O)C(=O)CO` [Prednisone] gave an efficacy of 8.5%. In the case of `CC(C)C[C@H](CN)CC(=O)O` [Pregabalin], the efficacy is reported as -8.5%. Compound `CC(=O)[C@H]1CC[C@H]2[C@@H]3C/C=C4/C[C@@H](O)CC[C@]4(C)[C@H]3CC[C@]12C` [Pregnenolone] has an efficacy of -6.65%. `COCCOc1ccc(N2CCN(CCn3ncc4c3nc(N)n3nc(-c5ccco5)nc43)CC2)cc1` [Preladenant] showed an efficacy of -16%. `C=Cc1cc(O)cc2nc(-c3ccc(O)c(F)c3)oc12` [Prinaberel] gave an efficacy of -14.8%. `CC(C)(Sc1cc(C(C)(C)C)c(O)c(C(C)(C)C)c1)Sc1cc(C(C)(C)C)c(O)c(C(C)(C)C)c1` [Probucol] gave an efficacy of -25.9%. Work on `CNNCc1ccc(C(=O)NC(C)C)cc1` [Procarbazine hydrochloride] yielded an efficacy of -10.4%. Work on `CC[C@H](NC(C)C)[C@H](O)C1=CC=C(O)C2=C1\C=C/C(=O)N2` [Procaterol hydrochloride] yielded an efficacy of 6.79%. With `CCCN(CCC)C(=O)C(CCC(=O)O)NC(=O)c1ccccc1` (stereo not given) [Proglumide] the efficacy was -18.3%. `CCCNCC(O)COc1ccccc1C(=O)CCc1ccccc1` (stereo not given) [Propafenone hydrochloride] was tested, and the efficacy was -43.8%. In the case of `CCCOc1ccc(C(=O)OCCN(CC)CC)cc1N` [Proparacaine], the efficacy is reported as -20.7%. In the case of `CC(C)c1cccc(C(C)C)c1O` [Propofol], the efficacy is reported as -8.33%. With `CCCCC[C@H](O)/C=C/[C@H]1[C@H](O)CC(=O)[C@@H]1C/C=C\CCCC(=O)O` [Prostaglandin E2] the efficacy was -28.6%. In the case of `CCCc1cc(C(N)=S)ccn1` [Protionamide], the efficacy is reported as -9.17%. `OC[C@H]1O[C@H]([C@H](O)[C@@H](O)[C@@H]1O)C2=C(O)C=CC3=C2O/C=C(C3=O)/C4=CC=C(O)C=C4` [Puerarin] showed an efficacy of -15.8%. `CC(C)[C@H](CO)Nc1nc(Nc2ccc(C(=O)O)c(Cl)c2)c2ncn(C(C)C)c2n1` [Purvalanol B] gave an efficacy of -11.6%. In the case of `CC(C)(C)C1=NC2=C([NH]1)C3=CC=C(F)C=C3C4=C2\C=C/NC4=O` [Pyridone 6], the efficacy is reported as -28.4%. `OC1=CC2=C(C(=C1)O)C(=O)\C(=C(/O2)C3=CC(=C(O)C=C3)O)O` [Quercetin] was tested, and the efficacy was -10.2%. In the case of `C=C[C@H]1CN2CCC1C[C@@H]2C(O)c1ccnc2ccc(OC)cc12` (stereo not given in full) [Quinidine], the efficacy is reported as -25.6%. Compound `CN1C(=O)\C(=C/C2=C1N=C(NC3CCOCC3)N=C2)OC4=C(F)C=C(F)C=C4` [R-1487] has an efficacy of -14.4%. `CCc1cccc2c3c([nH]c12)[C@@](CC)(CC(=O)O)OCC3` [R-Etodolac] gave an efficacy of -22.7%. `CNC(=O)c1ccc(N2C(=S)N(c3ccc(C#N)c(C(F)(F)F)c3)C(=O)C23CCC3)cc1F` [RD-162] gave an efficacy of -28.5%. In the case of `C[C@H]1CN(CCN1C2=CN=C(NC/3=C/C(=C\N(C)C3=O)C4=CC=NC(=C4CO)N5CC[N]6C7=C(CC(C)(C)C7)C=C6C5=O)C=C2)C8COC8` [RG-7845 (GDC-0853)], the efficacy is reported as -34.1%. For `OCc1ccc(-c2ccc(-c3ccc(CO)s3)o2)s1` [RITA], the efficacy was -46%. `Cc1ccc(Nc2cc(N[C@@H]3CCCC[C@@H]3N)nnc2C(N)=O)nc1C` [RO-9021] showed an efficacy of -74.9%. In the case of `O=C(CBr)N1CC([N+](=O)[O-])([N+](=O)[O-])C1` [RRx-001], the efficacy is reported as -23.7%. In the case of `CCC(C)CNCC(=O)N1CCc2sccc2C1c1cccc(C)n1` (stereo not given) [RUSKI-201], the efficacy is reported as -17%. Work on `CN(CC1=CC2=C(N\C(=N/C2=O)C)C=C1)C3=CC=C(S3)C(=O)N[C@@H](CCC(O)=O)C(O)=O` [Raltitrexed] yielded an efficacy of -59%. Compound `CCC(=O)NCC[C@@H]1CCc2ccc3c(c21)CCO3` [Ramelteon] has an efficacy of -25.2%. `CCOC(=O)[C@H](CCc1ccccc1)N[C@@H](C)C(=O)N1[C@H](C(=O)O)C[C@@H]2CCC[C@@H]21` [Ramipril] showed an efficacy of -13.7%. Work on `COc1ccccc1OCC(O)CN1CCN(CC(=O)Nc2c(C)cccc2C)CC1` (stereo not given) [Ranolazine] yielded an efficacy of -11.9%. `C#CCN[C@@H]1CCc2ccccc21` [Rasagiline mesylate] was tested, and the efficacy was -9.57%. `CCOc1cc(CC(=O)N[C@@H](CC(C)C)c2ccccc2N2CCCCC2)ccc1C(=O)O` [Repaglinide] was tested, and the efficacy was -23%. With `CCOCc1nc2c(N)nc3ccccc3c2n1CC(C)(C)O` [Resiquimod] the efficacy was -14.3%. `CCOC(=O)Nc1ccc(NCc2ccc(F)cc2)cc1N` [Retigabine] showed an efficacy of -11.8%. For `O=C(O)c1cc(O)c2c(c1)C(=O)c1cccc(O)c1C2=O` [Rhein], the efficacy was -14.9%. With `NC(=O)c1ncn([C@@H]2O[C@H](CO)[C@@H](O)[C@H]2O)n1` [Ribavirin] the efficacy was 18.5%. `CN(C)C(=O)c1cc2cnc(Nc3ccc(N4CCNCC4)cn3)nc2n1C1CCCC1` [Ribociclib (LEE011)] showed an efficacy of -12.5%. `CC1=CC/2=C(C=C1C)N(C[C@@H](O)[C@@H](O)[C@@H](O)CO)C/3=N/C(=O)NC(=O)C3=N2` [Riboflavin] gave an efficacy of -9.8%. For `CO[C@H]1/C=C/O[C@@]2(C)Oc3c(C)c(O)c4c(O)c(c(/C=N/N5CCN(C)CC5)c(O)c4c3C2=O)NC(=O)/C(C)=C\C=C\[C@H](C)[C@H](O)[C@@H](C)[C@@H](O)[C@@H](C)[C@H](OC(C)=O)[C@@H]1C` [Rifampicin], the efficacy was -20.5%. Compound `CO[C@H]1/C=C/O[C@@]2(C)Oc3c(C)c(O)c4c(O)c(c(/C=N\N5CCN(C6CCCC6)CC5)c(O)c4c3C2=O)NC(=O)/C(C)=C\C=C\[C@H](C)[C@H](O)[C@@H](C)[C@@H](O)[C@@H](C)[C@H](OC(C)=O)[C@@H]1C` [Rifapentine] has an efficacy of -59.1%. Work on `CO[C@H]1/C=C/O[C@@]2(C)Oc3c(C)c(O)c4c(O)c(c5c(nc6cc(C)ccn65)c4c3C2=O)NC(=O)/C(C)=C\C=C\[C@H](C)[C@H](O)[C@@H](C)[C@@H](O)[C@@H](C)[C@H](OC(C)=O)[C@@H]1C` [Rifaximin] yielded an efficacy of -88.6%. `C1C\N=C(\NC(C2CC2)C3CC3)O1` [Rilmenidine] was tested, and the efficacy was -6.97%. With `COC(=O)N(C)c1c(N)nc(-c2nn(Cc3ccccc3F)c3ncccc23)nc1N` [Riociguat] the efficacy was -5.69%. `C[C@H]1CNCCCN1[S+](=O)([O-])c1cccc2cncc(F)c12` [Ripasudil] showed an efficacy of -11%. `O=P(O)(O)C(O)(Cc1cccnc1)P(=O)(O)[O][Na]` (stereo not given) [Risedronate sodium] gave an efficacy of -16.1%. For `CC(NCCc1ccc(O)cc1)C(O)c1ccc(O)cc1` (stereo not given) [Ritodrine hydrochloride], the efficacy was -19.4%. `O=C(NC[C@H]1CN(c2ccc(N3CCOCC3=O)cc2)C(=O)O1)c1ccc(Cl)s1` [Rivaroxaban] showed an efficacy of -24.9%. In the case of `C[N]1C=C(C2=C1C=CC=C2)\C3=C(\C(=O)NC3=O)C4=C5CC(CN)CC[N]5C6=C4C=CC=C6` (stereo not given) [Ro-31-8425], the efficacy is reported as -33.7%. In the case of `COc1cc(C(C)C)c(Oc2cnc(NC(CO)CO)nc2N)cc1I` [Ro-51], the efficacy is reported as 7.2%. With `O=C(C[C@@H]1C/C=C\CCC(=O)O[C@H](c2ccccc2)CNC1=O)NCc1ccc(Cl)cc1` [Robotnikinin] the efficacy was -22.6%. With `C=CC[N+]1([C@H]2C[C@H]3[C@@H]4CC[C@H]5C[C@H](O)[C@@H](N6CCOCC6)C[C@]5(C)[C@H]4CC[C@]3(C)[C@H]2OC(C)=O)CCCC1` [Rocuronium bromide] the efficacy was -14.6%. `C[S+]([O-])(=O)C1=CC=C(C=C1)C/2=C(/C(=O)OC2)C3=CC=CC=C3` [Rofecoxib] gave an efficacy of -13.7%. For `O=C(Nc1c(Cl)cncc1Cl)c1ccc(OC(F)F)c(OCC2CC2)c1` [Roflumilast], the efficacy was -20.6%. Work on `COc1ccc(C2CNC(=O)C2)cc1OC1CCCC1` (stereo not given) [Rolipram] yielded an efficacy of -7.4%. `CCCn1c(=O)c2[nH]c(C34CC5CC3C[C@@H](C5)C4)nc2n(CCC)c1=O` [Rolofylline] showed an efficacy of -6.71%. With `CN(C1=CC=CC=C1)C(=O)C/2=C(O)/C3=C(C=CC=C3)N(C)C2=O` [Roquinimex] the efficacy was -11.9%. `CN(CCOc1ccc(CC2SC(=O)NC2=O)cc1)c1ccccn1` (stereo not given) [Rosiglitazone] was tested, and the efficacy was -13.8%. `CC(=O)c1c(O)c(C)c(O)c(Cc2c(O)c3c(c(C(=O)/C=C/c4ccccc4)c2O)OC(C)(C)C=C3)c1O` [Rottlerin] gave an efficacy of -8.89%. With `CCOC(=O)/C=C/[C@H](C[C@@H]1CCNC1=O)NC(=O)[C@@H](CC(=O)[C@@H](NC(=O)c1cc(C)on1)C(C)C)Cc1ccc(F)cc1` [Rupintrivir] the efficacy was -12.7%. `CC(C)(C)c1cc(C(=O)O)c(NC(=O)Nc2ccc3[nH]ncc3c2)s1` [S6K-18] showed an efficacy of -16.6%. `Cc1ccc([S+](=O)([O-])OCC(=O)Nc2ccc(C(=O)O)c(O)c2)cc1` [S31-201] was tested, and the efficacy was -5.21%. In the case of `CC(C)Nc1cc(C(F)(F)F)cc2nc(NC(=O)c3cccnc3)nn12` [S-99], the efficacy is reported as -15%. `C[C@@H]1COCCN1C\2=C\C(=O)N\3CC[C@H](N(CC4=CN=CC(=C4)Cl)C3=N2)C(F)(F)F` [SAR-405] showed an efficacy of -26.6%. In the case of `O=[S+]([O-])(CC1CS1)c1ccc(Oc2ccccc2)cc1` (stereo not given) [SB-3CT], the efficacy is reported as -55.8%. Work on `O=C(CO)N1CCC(c2n[nH]c(-c3ccc(Cl)cc3)c2-c2ccncn2)CC1` [SD-06] yielded an efficacy of 17.8%. In the case of `NC(=O)c1ccc2[nH]ccc2c1` [SD-169], the efficacy is reported as -11.3%. Compound `Fc1ccc(Cl)cc1-c1nc(Nc2ccncc2)c2nccnc2n1` [SD-208] has an efficacy of -22.5%. In the case of `O=C(NCC(=O)N1CCCC1)Nc1ccc2cnccc2c1` [SGC-707], the efficacy is reported as -18%. `Cc1cc(C)cc(Oc2ccc(CNC(=O)[C@H](C)N)cc2C)c1` [SGC-2085] was tested, and the efficacy was -101%. Work on `Cn1cc(-c2ccc3nnc(Sc4ccc5ncccc5c4)n3n2)cn1` [SGX-523] yielded an efficacy of -6.72%.
